Structures are written as SMILES.

The test system of assay [1] is HCC1954 cells. Briefly: Breast cancer growth inhibitory activity (Cell-titer Glo, 72 h). Type of assay: cell-based. Conditions: Homo sapiens, 72 hours, read-out: HCC1954 (GI50/μM). Here is the method: (§1) Breast cancer cells in a culture solution (100 μL volume/well, 2,500 SK-Br3 cells/well, 1,000 HCC-1954 cells/well) were seeded into a tissue culture-treated 96-well plate and cultured in a cell incubator for 24 hours. […] Cell-titer Glo™ reagent (50 μL of a 5-fold diluted solution, Promega) was added to each well, and luminescence signals were measured using an Envision™ plate reader (PerkinElmer, USA). Titration curve fitting and IC50 values were generated using Prism 7.0 s/w (GraphPad, San Diego, USA).

The test system of assay [2] is SK-Br3 cells. The description is as above. Type of assay: cell-based. Conditions: Homo sapiens, SK-BR-3; 72 hours; read-out: SK-Br3 (GI50/μM). Here is the method:
as §1

Assay [3] concerns the target CDK12/CyclinK (Homo sapiens (Human), UniProt Q9NYV4). Briefly: CDK12/cyclinK enzyme activity. Type of assay: biochemical. Particulars: in vitro.

Chain of CDK12/CyclinK (Q9NYV4 whole entry): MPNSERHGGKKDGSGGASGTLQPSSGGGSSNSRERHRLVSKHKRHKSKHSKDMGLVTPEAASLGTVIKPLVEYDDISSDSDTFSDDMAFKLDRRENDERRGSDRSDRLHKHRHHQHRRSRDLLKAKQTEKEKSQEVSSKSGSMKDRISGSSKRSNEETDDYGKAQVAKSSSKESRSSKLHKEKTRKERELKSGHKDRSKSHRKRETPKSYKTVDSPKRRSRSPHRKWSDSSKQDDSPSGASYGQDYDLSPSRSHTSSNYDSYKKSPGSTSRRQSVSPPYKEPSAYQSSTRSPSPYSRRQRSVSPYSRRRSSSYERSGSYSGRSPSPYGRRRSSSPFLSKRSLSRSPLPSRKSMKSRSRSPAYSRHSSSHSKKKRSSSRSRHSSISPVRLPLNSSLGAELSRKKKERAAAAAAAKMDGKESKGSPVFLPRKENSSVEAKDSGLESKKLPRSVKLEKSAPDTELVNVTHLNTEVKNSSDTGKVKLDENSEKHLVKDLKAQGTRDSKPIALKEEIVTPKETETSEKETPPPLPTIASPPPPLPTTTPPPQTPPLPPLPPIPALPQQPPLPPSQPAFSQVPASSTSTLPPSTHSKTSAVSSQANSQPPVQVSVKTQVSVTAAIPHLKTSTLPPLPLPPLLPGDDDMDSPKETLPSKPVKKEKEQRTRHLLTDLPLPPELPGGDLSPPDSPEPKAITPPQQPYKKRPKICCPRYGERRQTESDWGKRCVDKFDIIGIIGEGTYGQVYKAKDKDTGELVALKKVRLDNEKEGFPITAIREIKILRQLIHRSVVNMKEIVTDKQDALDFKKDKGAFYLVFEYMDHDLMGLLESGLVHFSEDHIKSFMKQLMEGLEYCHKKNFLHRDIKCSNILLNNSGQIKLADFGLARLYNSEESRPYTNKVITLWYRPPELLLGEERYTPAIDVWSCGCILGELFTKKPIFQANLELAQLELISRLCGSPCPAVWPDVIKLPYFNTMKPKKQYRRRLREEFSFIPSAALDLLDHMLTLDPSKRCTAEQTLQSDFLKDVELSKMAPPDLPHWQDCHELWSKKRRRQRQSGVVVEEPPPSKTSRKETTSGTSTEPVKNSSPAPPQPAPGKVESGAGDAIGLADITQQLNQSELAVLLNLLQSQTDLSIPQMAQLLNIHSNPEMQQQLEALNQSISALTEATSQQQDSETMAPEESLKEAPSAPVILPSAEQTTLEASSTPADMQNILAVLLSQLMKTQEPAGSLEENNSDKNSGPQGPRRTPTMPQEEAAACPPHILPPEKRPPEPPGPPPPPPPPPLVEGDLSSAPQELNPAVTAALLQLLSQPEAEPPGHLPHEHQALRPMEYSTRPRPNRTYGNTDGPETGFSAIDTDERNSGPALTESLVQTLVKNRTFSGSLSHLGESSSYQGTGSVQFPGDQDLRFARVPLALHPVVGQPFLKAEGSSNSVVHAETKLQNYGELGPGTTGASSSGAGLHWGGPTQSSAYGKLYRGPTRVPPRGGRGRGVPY
Chain of CDK12/CyclinK (O75909 whole entry partner): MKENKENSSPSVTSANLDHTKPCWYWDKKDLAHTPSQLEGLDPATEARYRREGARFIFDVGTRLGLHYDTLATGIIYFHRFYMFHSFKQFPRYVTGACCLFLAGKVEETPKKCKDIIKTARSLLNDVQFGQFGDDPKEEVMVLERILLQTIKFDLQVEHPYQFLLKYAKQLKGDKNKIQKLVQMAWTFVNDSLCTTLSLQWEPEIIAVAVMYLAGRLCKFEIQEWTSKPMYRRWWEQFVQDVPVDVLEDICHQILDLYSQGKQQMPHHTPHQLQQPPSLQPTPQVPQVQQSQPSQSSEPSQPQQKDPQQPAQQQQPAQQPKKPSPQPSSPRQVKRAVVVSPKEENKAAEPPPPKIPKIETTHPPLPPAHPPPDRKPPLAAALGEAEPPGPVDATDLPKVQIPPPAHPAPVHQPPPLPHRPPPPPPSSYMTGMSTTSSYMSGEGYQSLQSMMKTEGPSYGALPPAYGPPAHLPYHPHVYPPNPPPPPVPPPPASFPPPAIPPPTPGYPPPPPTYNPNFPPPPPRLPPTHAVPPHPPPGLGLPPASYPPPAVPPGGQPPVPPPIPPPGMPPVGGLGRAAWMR

As a reminder, the IC50 is the concentration needed to halve the response being measured. A high value points to weaker potency in that assay. With `Cc1ccc(-c2ccc(CNc3nc(-c4cccnc4)nc4c3ncn4C(C)C)nc2)cn1` [Example 3, 9-isopropyl-N-((6′-methyl-[3,3′-bipyridin]-6-yl)methyl)-2-(pyridin-3-yl)-9H-purin-6-amine], the GI50 in assay [1] is 13.6 µM; in assay [2] it was 23.1 µM. For the same compound, the IC50 in assay [3] turned out to be 1.11 µM.
For `CC(C)n1cnc2c(NCc3ccc(-c4cccnc4)nc3)nc(-c3cccnc3)nc21` [Example 6, N-([2,3′-bipyridin]-5-ylmethyl)-9-isopropyl-2-(pyridin-3-yl)-9H-purin-6-amine] the same measures were 0.248 µM, 0.416 µM and 0.221 µM.
Consider `CC(C)n1cnc2c(NCc3ccc(-c4ccncc4)nc3)nc(-c3cccnc3)nc21` [Example 7, N-([2,4′-bipyridin]-5-ylmethyl)-9-isopropyl-2-(pyridin-3-yl)-9H-purin-6-amine], for which the GI50 worked out at 0.5 µM in assay [1] and 0.801 µM in assay [2]. This compound gave an IC50 in assay [3] of 0.153 µM.
The corresponding values for `CC(C)n1cnc2c(NCc3ccc(-c4cccnc4)nc3)nc(-c3ccccc3)nc21` [Example 8, N-([2,3′-bipyridin]-5-ylmethyl)-9-isopropyl-2-phenyl-9H-purin-6-amine] are 1.12 µM, 1.68 µM and 0.623 µM.
The corresponding values for `CC(C)n1cnc2c(NCc3ccc(-c4cccnc4)nc3)nc(-c3cccc(C(N)=O)c3)nc21` [Example 9, 3-(6-(([2,3′-bipyridin]-5-ylmethyl)amino)-9-isopropyl-9H-purin-2-yl)benzamide] are 1.12 µM, 1.6 µM and 0.504 µM.
For `CC(C)n1cnc2c(NCc3ccc(-c4cccnc4)nc3)nc(-c3ccc(C(N)=O)cc3)nc21` [Example 10, 4-(6-(([2,3′-bipyridin]-5-ylmethyl)amino)-9-isopropyl-9H-purin-2-yl)benzamide] the same measures were 3.14 µM, 3.7 µM and 0.484 µM.
For `CC(C)n1cnc2c(NCc3ccc(-c4cccnc4)nc3)nc(-c3ccc4[nH]ccc4c3)nc21` [Example 11, N-([2,3′-bipyridin]-5-ylmethyl)-2-(1H-indol-5-yl)-9-isopropyl-9H-purin-6-amine], the GI50 in assay [1] amounted to 1.36 µM; in assay [2], 1.5 µM. Besides, the midpoint of inhibition in assay [3], the IC50, lay at 0.155 µM.
On to `CC(C)n1cnc2c(NCc3ccc(-c4cccnc4)nc3)nc(-c3ccc4cn[nH]c4c3)nc21` [Example 13, N-([2,3′-bipyridin]-5-ylmethyl)-2-(1H-indazol-6-yl)-9-isopropyl-9H-purin-6-amine], for which the GI50 was 0.4 µM in assay [1] and 0.597 µM in assay [2]. This compound gave an IC50 in assay [3] of 0.179 µM.
Take `CC(C)n1cnc2c(NCc3ccc(-c4cccnc4)nc3)nc(-c3ccc4[nH]ncc4c3)nc21` [Example 14, N-([2,3′-bipyridin]-5-ylmethyl)-2-(1H-indazol-5-yl)-9-isopropyl-9H-purin-6-amine]: the GI50 is 1.88 µM in assay [1] and 2.6 µM in assay [2]. Moreover, the IC50 in assay [3] was found to be 0.104 µM.
The corresponding values for `CC(C)n1cnc2c(NCc3ccc(-c4cccnc4)nc3)nc(-c3cnc4ccccc4c3)nc21` [Example 16, N-([2,3′-bipyridin]-5-ylmethyl)-9-isopropyl-2-(quinolin-3-yl)-9H-purin-6-amine] are 4.23 µM, 3.71 µM and 0.486 µM.
For `Cc1ccc(-c2nc(NCc3ccc(-c4cccnc4)nc3)c3ncn(C(C)C)c3n2)cn1` [Example 17, N-([2,3′-bipyridin]-5-ylmethyl)-9-isopropyl-2-(6-methylpyridin-3-yl)-9H-purin-6-amine] the same measures were 0.937 µM, 1.25 µM and 0.09 µM.
`CC(C)n1cnc2c(NCc3ccc(-c4cccnc4)nc3)nc(-c3ccc(N)nc3)nc21` [Example 18, N-([2,3′-bipyridin]-5-ylmethyl)-2-(6-aminopyridin-3-yl)-9-isopropyl-9H-purin-6-amine]: the results for the GI50 in assay [1] and in assay [2] were 0.279 µM and 0.375 µM, respectively. In assay [3], this compound showed a concentration for half-maximal inhibition (IC50) of 0.065 µM.
As for `CC(C)n1cnc2c(NCc3ccc(-c4cccnc4)nc3)nc(-c3ccnc(N)c3)nc21` [Example 19, N-([2,3′-bipyridin]-5-ylmethyl)-2-(2-aminopyridin-4-yl)-9-isopropyl-9H-purin-6-amine], the GI50 in assay [1] came out at 0.362 µM. In addition, it took 0.094 µM to reach half-maximal inhibition in assay [3] (IC50).
`CC(C)n1cnc2c(NCc3ccc(-c4cccnc4)nc3)nc(-c3cnc(N)nc3)nc21` [Example 21, N-([2,3′-bipyridin]-5-ylmethyl)-2-(2-aminopyrimidin-5-yl)-9-isopropyl-9H-purin-6-amine] gave a half-inhibitory concentration (IC50) in assay [3] of 0.087 µM.
Consider `CC(C)n1cnc2c(NCc3ccc(-c4cccnc4)nc3)nc(-c3ccn[nH]3)nc21` [Example 22, N-([2,3′-bipyridin]-5-ylmethyl)-9-isopropyl-2-(1H-pyrazol-5-yl)-9H-purin-6-amine], for which, in assay [2], the GI50 is 1.72 µM. Also, in assay [3], the IC50 is 0.501 µM.
The corresponding values for `CC(C)n1cnc2c(NCc3ccc(-c4cccnc4)nc3)nc(-c3cn[nH]c3)nc21` [Example 23, N-([2,3′-bipyridin]-5-ylmethyl)-9-isopropyl-2-(1H-pyrazol-4-yl)-9H-purin-6-amine] are 1.99 µM and 1.43 µM.
For `CC(C)n1cnc2c(NCc3ccc(-c4cccnc4)nc3)nc(-c3ccc(N)cc3)nc21` [Example 27, N-([2,3′-bipyridin]-5-ylmethyl)-2-(4-aminophenyl)-9-isopropyl-9H-purin-6-amine] the same measures were 0.813 µM and 0.15 µM.
The corresponding values for `CC(C)n1cnc2c(NCc3ccc(-c4cccnc4)nc3)nc(-c3ccnc(F)c3)nc21` [Example 29, N-([2,3′-bipyridin]-5-ylmethyl)-2-(2-fluoropyridin-4-yl)-9-isopropyl-9H-purin-6-amine] are 1.72 µM and 0.164 µM.
In the case of `CC(C)n1cnc2c(NCc3ccc(-c4cccnc4)nc3)nc(-c3cccc(NCCCO)c3)nc21` [Example 33, 3-((3-(6-(([2,3′-bipyridin]-5-ylmethyl)amino)-9-isopropyl-9H-purin-2-yl)phenyl)amino)propan-1-ol], the GI50 in assay [2] came out at 0.724 µM. Besides, in assay [3], half-maximal inhibition (IC50) required 0.257 µM.
With `CC(C)n1cnc2c(NCc3ccc(-c4cccnc4)nc3)nc(-c3ccc(NCCCO)nc3)nc21` [Example 36, 3-((5-(6-(([2,3′-bipyridin]-5-ylmethyl)amino)-9-isopropyl-9H-purin-2-yl)pyridin-2-yl)amino)propan-1-ol], the GI50 in assay [2] was 1.18 µM. Also, the half-inhibitory concentration (IC50) in assay [3] amounted to 0.304 µM.
For `CC(C)n1cnc2c(NCc3ccc(-c4cccnc4)nc3)nc(-c3ccnc(NCCO)c3)nc21` [Example 37, 2-((4-(6-(([2,3′-bipyridin]-5-ylmethyl)amino)-9-isopropyl-9H-purin-2-yl)pyridin-2-yl)amino)ethan-1-ol] the same measures were 0.47 µM and 0.086 µM.
The corresponding values for `CC(C)n1cnc2c(NCc3ccc(-c4cccnc4)nc3)nc(-c3ccnc(NCCCO)c3)nc21` [Example 38, 3-((4-(6-(([2,3′-bipyridin]-5-ylmethyl)amino)-9-isopropyl-9H-purin-2-yl)pyridin-2-yl)amino)propan-1-ol] are 0.479 µM and 0.113 µM.
In assay [3], `COc1cncc(-c2nc(NCc3ccc(-c4ccccn4)cn3)c3ncn(C(C)C)c3n2)c1` [Example 44, N-([2,3′-bipyridin]-6′-ylmethyl)-9-isopropyl-2-(5-methoxypyridin-3-yl)-9H-purin-6-amine] came in with an IC50 of 1.53 µM.
For `CC(C)n1cnc2c(NCc3ccc(-c4ccccn4)cn3)nc(-c3ccc(N)nc3)nc21` [Example 45, N-([2,3′-bipyridin]-6′-ylmethyl)-2-(6-aminopyridin-3-yl)-9-isopropyl-9H-purin-6-amine], in assay [2], the GI50 is 0.169 µM. This compound showed an IC50 in assay [3] of 0.221 µM.
The corresponding values for `CCn1cnc2c(NCc3ccc(-c4cccnc4)nc3)nc(-c3cccnc3)nc21` [Example 46, N-([2,3′-bipyridin]-5-ylmethyl)-9-ethyl-2-(pyridin-3-yl)-9H-purin-6-amine] are 0.217 µM and 0.016 µM.
In the case of `c1cncc(-c2ccc(CNc3nc(-c4cccnc4)nc4c3ncn4C3CCOCC3)cn2)c1` [Example 48, N-([2,3′-bipyridin]-5-ylmethyl)-2-(pyridin-3-yl)-9-(tetrahydro-2H-pyran-4-yl)-9H-purin-6-amine], the GI50 in assay [1] turned out to be 44.2 µM. The IC50 in assay [3] is above 10 µM.
Regarding `CCn1cnc2c(NCc3ccc(-c4ccnc(C)c4)nc3)nc(-c3ccc4[nH]c(=O)[nH]c4c3)nc21` [Example 52, 5-(9-ethyl-6-(((2′-methyl-[2,4′-bipyridin]-5-yl)methyl)amino)-9H-purin-2-yl)-1,3-dihydro-2H-benzo[d]imidazol-2-one], in assay [1], the GI50 amounted to 0.635 µM.
Turning to `CCn1cnc2c(NCc3ccc(-n4nc(C)cc4C)nc3)nc(-c3cnc(N)nc3)nc21` [Example 62, 2-(2-aminopyrimidin-5-yl)-N-((6-(3,5-dimethyl-1H-pyrazol-1-yl)pyridin-3-yl)methyl)-9-ethyl-9H-purin-6-amine], the GI50 in assay [1] amounted to 0.085 µM; in assay [2], 0.066 µM.
Take `CC(C)n1cnc2c(NCc3ccc(-c4cccnc4)nc3)nc(N3CCOC[C@H]3CCO)nc21` [Example 63, (R)-2-(4-(6-(([2,3′-bipyridin]-5-ylmethyl)amino)-9-isopropyl-9H-purin-2-yl)morpholin-3-yl)ethan-1-ol]: the GI50 in assay [1] was 0.168 µM.

For the origin of these results see patent US20250101023A1, “HETEROARYL DERIVATIVE AND USES THEREOF” (IUCF-HYU (INDUSTRY-UNIVERSITY COOPERATION FOUNDATION …, priority 2022, published 2025).
